Among the data in US9732072B2, “PRMT5 inhibitors and uses thereof” (Epizyme, Inc., priority 2012, dated 2017) are IC50 and EC50 values, retold here.

Some results are limits rather than exact numbers.

In the first assay the target is PRMT5/MEP50 (Homo sapiens (Human), UniProt O14744). Description: PRMT5 Biochemical Assay (PRMT5/MEP50 enzyme assay on peptide substrate, 3H-SAM Flashplate). The note with it: PRMT5/MEP50 4 nM, 3H-SAM 75 nM, peptide 40 nM. An excerpt: S-adenosylmethionine (SAM), S-adenosylhomocysteine (SAH), bicine, KCl, Tween20, dimethylsulfoxide (DMSO), bovine skin gelatin (BSG), and Tris(2-carboxyethyl)phosphine hydrochloride solution (TCEP) were purchased from Sigma-Aldrich at the highest level of purity possible. ^3H-SAM was purchase from American Radiolabeled Chemicals with a specific activity of 80 Ci/mmol. 384-well streptavidin Flashplates were purchased from PerkinElmer.
PRMT5/MEP50, sequence (O14744 other isoform, or with tags, fused parts or gaps): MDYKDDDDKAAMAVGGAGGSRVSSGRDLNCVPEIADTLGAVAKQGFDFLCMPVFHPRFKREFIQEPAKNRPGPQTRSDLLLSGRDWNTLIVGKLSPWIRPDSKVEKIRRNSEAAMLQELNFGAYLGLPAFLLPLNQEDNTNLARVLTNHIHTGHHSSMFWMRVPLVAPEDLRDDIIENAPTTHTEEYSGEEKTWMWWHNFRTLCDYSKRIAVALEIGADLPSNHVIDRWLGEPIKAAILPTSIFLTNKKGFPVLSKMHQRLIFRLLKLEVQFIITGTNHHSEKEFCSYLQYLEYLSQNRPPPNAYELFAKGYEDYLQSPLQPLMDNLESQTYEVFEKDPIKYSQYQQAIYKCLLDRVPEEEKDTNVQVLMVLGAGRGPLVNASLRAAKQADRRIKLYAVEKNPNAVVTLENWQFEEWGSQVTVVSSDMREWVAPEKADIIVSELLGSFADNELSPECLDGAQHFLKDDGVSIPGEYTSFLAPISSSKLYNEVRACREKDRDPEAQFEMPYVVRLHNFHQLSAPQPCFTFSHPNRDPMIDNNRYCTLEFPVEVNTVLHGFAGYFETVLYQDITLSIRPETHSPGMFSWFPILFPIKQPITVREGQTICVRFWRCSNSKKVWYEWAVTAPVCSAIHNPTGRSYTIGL
PRMT5/MEP50, sequence (Q9BQA1 other isoform, or with tags, fused parts or gaps partner): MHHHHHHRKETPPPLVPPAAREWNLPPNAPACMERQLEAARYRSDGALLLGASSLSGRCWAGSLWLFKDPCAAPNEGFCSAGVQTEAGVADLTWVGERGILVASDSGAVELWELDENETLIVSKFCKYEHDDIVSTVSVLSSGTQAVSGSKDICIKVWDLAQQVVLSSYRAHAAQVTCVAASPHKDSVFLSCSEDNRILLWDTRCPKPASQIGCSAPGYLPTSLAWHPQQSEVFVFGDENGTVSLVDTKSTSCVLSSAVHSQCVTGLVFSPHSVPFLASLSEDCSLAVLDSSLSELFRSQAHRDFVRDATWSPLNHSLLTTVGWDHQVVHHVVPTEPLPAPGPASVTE
Peptide representative of human histone H4 residues 1-15 was synthesized with a C-terminal linker-affinity tag motif and a C-terminal amide cap by 21st Century Biochemicals. The peptide was high high-performance liquid chromatography (HPLC) purified to greater than 95% purity and confirmed by liquid chromatography mass spectrometry (LC-MS). The sequence was Ac-[…][K-Biot]-amide (SEQ ID NO.:3).
Full-length human PRMT5 (NM_006109.3) transcript variant 1 clone was amplified from a fetal brain cDNA library, incorporating flanking 5′ sequence encoding a FLAG tag ([…]) (SEQ ID NO.:4) fused directly to Ala 2 of PRMT5. Full-length human MEP50 (NM_024102) clone was amplified from a human testis cDNA library incorporating a 5′ sequence encoding a 6-histidine tag (MHHHHHH) (SEQ ID NO.:5) fused directly to Arg 2 of MEP50. The amplified genes were sublconed into pENTR/D/TEV (Life Technologies) and subsequently transferred by Gateway™ attL×attR recombination to pDEST8 baculvirus expression vector (Life Technologies).
Recombinant baculovirus and Baculovirus-Infected Insect Cells (BIIC) were generated according to Bac-to-Bac kit instructions (Life Technologies) and Wasilko, 2006, respectively. Protein over-expression was accomplished by infecting exponentially growing Spodoptera frugiperda (SF9) cell culture at 1.2×10^6 cell/ml with a 5000 fold dilution of BIIC stock. Infections were carried out at 27° C. for 72 hours, harvested by centrifugation, and stored at −80° C. for purification.
Flag-PRMT5/6His-MeP50 was eluted with 300 mM Imidazole in the same buffer. The purity of recovered protein was 87%. Reference: Wasilko, D. J. and S. E. Lee: “TIPS: titerless infected-cells preservation and scale-up” Bioprocess J., 5 (2006), pp. 29-32.
General Procedure for PRMT5/MEP50 Enzyme Assays on Peptide Substrates.
The assays were all performed in a buffer consisting of 20 mM Bicine (pH=7.6), 1 mM TCEP, 0.005% BSG, and 0.002% Tween20, prepared on the day of use. Compounds in 100% DMSO (1 ul) were spotted into a polypropylene 384-well V-bottom plates (Greiner) using a Platemate Plus outfitted with a 384-channel head (Thermo Scientific). DMSO (1 ul) was added to Columns 11, 12, 23, 24, rows A-H for the maximum signal control and 1 ul of SAH, a known product and inhibitor of PRMT5/MEP50, was added to columns 11, 12, 23, 24, rows I-P for the minimum signal control. A cocktail (40 ul) containing the PRMT5/MEP50 enzyme and the peptide was added by Multidrop Combi (Thermo-Fisher). The compounds were allowed to incubate with PRMT5/MEP50 for 30 min at 25 degrees Celsius, then a cocktail (10 ul) containing ^3H-SAM was added to initiate the reaction (final volume=51 ul). The final concentrations of the components were as follows: PRMT5/MEP50 was 4 nM, ^3H-SAM was 75 nM, peptide was 40 nM, SAH in the minimum signal control wells was 100 uM, and the DMSO concentration was 1%. The assays were stopped by the addition of non-radioactive SAM (10 ul) to a final concentration of 600 uM, which dilutes the ^3H-SAM to a level where its incorporation into the peptide substrate is no longer detectable. 50 ul of the reaction in the 384-well polypropylene plate was then transferred to a 384-well Flashplate and the biotinylated peptides were allowed to bind to the streptavidin surface for at least 1 hour before being washed three times with 0.1% Tween20 in a Biotek ELx405 plate washer. […]
By IC50 is commonly meant the midpoint of a concentration-inhibition curve. With `C[C@H](Oc1cccc2cccnc12)C(=O)NC[C@H](O)CN1Cc2ccccc2C1` [Compound 1], the IC50 lay within 1000 to 10000 nM.

On to `C[C@@H](Oc1cccc2cccnc12)C(=O)NC[C@@H](O)CN1Cc2ccccc2C1` [Compound 3, (R)—N—((R)-2-hydroxy-3-(isoindolin-2-yl)propyl)-2-(quinolin-8-yloxy)propanamide], for which the IC50 was in the range of 1000 to 10000 nM. On to `C[C@H](Oc1cccc2cccnc12)C(=O)NC[C@@H](O)CN1Cc2ccccc2C1` [Compound 6], for which the 50% inhibitory concentration (IC50) was over 10000 nM. In the case of `CN1CCOc2cccc(OCC(=O)NCC(O)CN3Cc4ccccc4C3)c21` (stereo not shown) [Compound 10, N-(2-hydroxy-3-(isoindolin-2-yl)propyl)-2-((4-methyl-3,4-dihydro-2H-benzo[b][1,4]oxazin-5-yl)oxy)acetamide], the IC50 lay in the range of 101 to 1000 nM.

With `Cn1cnc2ccc(-c3cccc(OC[C@@H](O)CN4Cc5ccccc5C4)c3)cc21` [Compound 14], the IC50 lay within 10000 to 50000 nM. With `Cn1cnc2ccc(-c3cccc(OC[C@H](O)CN4Cc5ccccc5C4)c3)cc21` [Compound 17, (R)-1-(isoindolin-2-yl)-3-(3-(1-methyl-1H-benzo[d]imidazol-6-yl)phenoxy)propan-2-ol], the IC50 lay within 1000 to 10000 nM. On to `CN(C)S(=O)(=O)c1ccccc1OCC(=O)NC[C@@H](O)CN1Cc2ccccc2C1` [Compound 21], for which the IC50 lay in the range of 101 to 1000 nM.

`CN1CCOc2cccc(OCC(=O)NC[C@@H](O)CN3Cc4ccccc4C3)c21` [Compound 22]: the IC50 lay in the range of 101 to 1000 nM. Same read-out and setting: in the case of `CN(C)S(=O)(=O)c1ccccc1OCC(=O)NC[C@H](O)CN1Cc2ccccc2C1` [Compound 23] it was under 100 nM; in that of `Cn1ncc2ccc(OCC(=O)NC[C@@H](O)CN3Cc4ccccc4C3)cc21` [Compound 25], 10000 to 50000 nM; in that of `CN1CCOc2cccc(OCC(=O)NC[C@H](O)CN3Cc4ccccc4C3)c21` [Compound 26], 101 to 1000 nM.

With `Cn1ncc2ccc(OCC(=O)NC[C@H](O)CN3Cc4ccccc4C3)cc21` [Compound 27], the IC50 is 101 to 1000 nM.

As for `O=C(NC[C@H](O)CN1Cc2ccccc2C1)c1ccnc(NC2CCOCC2)c1` [Compound 30], the IC50 was under 100 nM.

Another assay deals with Z-138 cell line. The experiment in a line: Z-138 Proliferation Assay (Cell Titer Glo). The following applies: Homo sapiens, 120 h; Z-138 cells, 5 days, top concentration 20 μM. It is filed as cell-based. An excerpt:
[formula] Z-138 Proliferation Assay
Z-138 suspension cells were purchased from ATCC (American Type Culture Collection, Manassas, Va.). RPMI/Glutamax medium, penicillin-streptomycin, heat inactivated fetal bovine serum were purchased from Life Technologies, Grand Island, N.Y., USA. V-bottom polypropylene 384-well plates were purchased from Greiner Bio-One, Monroe, N.C., USA. Cell culture 384-well white opaque plates were purchased from Perkin Elmer, Waltham, Mass., USA. Cell-Titer Glo® was purchased from Promega Corporation, Madison, Wis., USA. SpectraMax M5 plate reader was purchased from Molecular Devices LLC, Sunnyvale, Calif., USA. […]
For the assessment of the effect of compounds on the proliferation of the Z-138 cell line, exponentially growing cells were plated in 384-well white opaque plates at a density of 10,000 cells/ml in a final volume of 50 μl of assay medium. […] Cell viability was measured by quantitation of ATP present in the cell cultures, adding 35 μl of Cell Titer Glo® reagent to the cell plates. Luminescence was read in the SpectraMax M5 microplate reader. The concentration of compound inhibiting cell viability by 50% was determined using a 4-parametric fit of the normalized dose response curves.
(In general: ATP-based viability assays read luminescence as a measure of living cells.)
One may read the EC50 as the midpoint of the concentration-response curve. With `CN1CCOc2cccc(OCC(=O)NCC(O)CN3Cc4ccccc4C3)c21` (stereo not shown) [Compound 10, N-(2-hydroxy-3-(isoindolin-2-yl)propyl)-2-((4-methyl-3,4-dihydro-2H-benzo[b][1,4]oxazin-5-yl)oxy)acetamide], the EC50 was over 20000 nM.

In a further assay the test system is Symmetric Di-Methyl Arginine in Z-138 cells. The experiment in a line: Z-138 Methylation Assay (In Cell Western for symmetric di-methyl arginine). The class given is cell-based. The following applies: Homo sapiens, 96 hours incubation, read-out: ICW EC50. An excerpt: [formula] Where top and bottom are the normally allowed to float, but may be fixed at 100 or 0 respectively in a 3-parameter fit. The Hill Coefficient normally allowed to float but may also be fixed at 1 in a 3-parameter fit. Y is the % inhibition and X is the compound concentration. Z-138 Methylation Assay
Z-138 suspension cells were purchased from ATCC (American Type Culture Collection, Manassas, Va.). RPMI/Glutamax medium, penicillin-streptomycin, heat inactivated fetal bovine serum, and D-PBS were purchased from Life Technologies, Grand Island, N.Y., USA. Odyssey blocking buffer, 800CW goat anti-rabbit IgG (H+L) antibody, and Licor Odyssey infrared scanner were purchased from Licor Biosciences, Lincoln, Nebr., USA. Symmetric di-methyl arginine antibody was purchased from EMD Millipore, Billerica, Mass., USA. […]
First, the ratio for each well was determined by:
Each plate included fourteen control wells of DMSO only treatment (minimum inhibition) as well as fourteen control wells for maximum inhibition treated with 3 μM of a reference compound (Background wells). The average of the ratio values for each control type was calculated and used to determine the percent inhibition for each test well in the plate. […] Percent inhibition was determined and IC50 curves were generated using triplicate wells per concentration of compound. […]
For `O=C(NCC(O)CN1Cc2ccccc2C1)c1cccc(NC2CCOCC2)c1` (stereo not shown) [Compound 8], the EC50 is 101 to 1000 nM. On to `CN1CCOc2cccc(OCC(=O)NCC(O)CN3Cc4ccccc4C3)c21` (stereo not shown) [Compound 10, N-(2-hydroxy-3-(isoindolin-2-yl)propyl)-2-((4-methyl-3,4-dihydro-2H-benzo[b][1,4]oxazin-5-yl)oxy)acetamide], for which the EC50 was in the range of 101 to 1000 nM.
